# Experimental data taken from PubChem BioAssay AID330 (DTP/NCI, 2004).
# Inconclusive results and toxic doses are left out. Peptide text beside a SMILES is read from it.
# Tested on: P388 leukemia ip, CD2F1 mice, survival T/C
# Experiment: NCI In Vivo Anticancer Drug Screen. Data for tumor model P388 Leukemia (intraperitoneal) in CD2F1 (CDF1) mice
# Settings: endpoint: median survival time, higher = longer survival
# Method in brief: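 Mice carrying the transplanted tumor received test compound or vehicle. Survival was recorded in each group, and the value is the treated-group measurement divided by that of the vehicle-treated control group.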
# [1] = dose: 50.0 mg/kg/injection, schedule: Q01DX005 (ip), vehicle: Klucel (hydroxypropylcellulose) (HPC)
# [2] = dose: 50.0 mg/kg/injection, schedule: Q01DX009 (ip), vehicle: saline with Tween-80
# [3] = dose: 100.0 mg/kg/injection, schedule: Q01DX009 (ip), vehicle: saline with Tween-80
# [4] = dose: 200.0 mg/kg/injection, schedule: Q01DX009 (ip), vehicle: saline with Tween-80
# [5] = dose: 50.0 mg/kg/injection, schedule: Q01DX005 (ip), vehicle: saline with Tween-80
# [6] = dose: 100.0 mg/kg/injection, schedule: Q01DX005 (ip), vehicle: saline with Tween-80
# [7] = dose: 200.0 mg/kg/injection, schedule: Q01DX005 (ip), vehicle: saline with Tween-80
# [8] = dose: 50.0 mg/kg/injection, schedule: Q01DX009 (ip), vehicle: saline
# [9] = dose: 100.0 mg/kg/injection, schedule: Q01DX009 (ip), vehicle: saline
# [10] = dose: 200.0 mg/kg/injection, schedule: Q01DX009 (ip), vehicle: saline
smiles,measurement,setting,value
NC(Cc1ccccc1)C(=O)NC(CC(=O)O)C(=O)O (stereo not drawn) (H-Phe-Asp-OH; configuration not given here),T/C,[1],99 % of control
same,T/C,"dose: 100.0 mg/kg/injection, schedule: Q01DX005 (ip), vehicle: Klucel (hydroxypropylcellulose) (HPC)",99 % of control
same,T/C,"dose: 200.0 mg/kg/injection, schedule: Q01DX005 (ip), vehicle: Klucel (hydroxypropylcellulose) (HPC)",109 % of control
O=C(N=C=S)c1ccc(Cl)c(Cl)c1,T/C,"dose: 25.0 mg/kg/injection, schedule: Q01DX009 (ip), vehicle: saline with Tween-80",94 % of control
same,T/C,[2],95 % of control
same,T/C,[3],95 % of control
same,T/C,[4],103 % of control
O=[N+]([O-])/C=C/c1cc2c(ccc3ccccc32)[nH]1,T/C,[5],91 % of control
same,T/C,[6],93 % of control
same,T/C,[7],99 % of control
O=S(=O)(/N=C1/C=CC=CC1=C(N1CCOCC1)N1CCOCC1)c1ccccc1,T/C,"dose: 50.0 mg/kg/injection, schedule: Q04DX003 (ip), vehicle: saline",104 % of control
same,T/C,"dose: 100.0 mg/kg/injection, schedule: Q04DX003 (ip), vehicle: saline",111 % of control
same,T/C,"dose: 200.0 mg/kg/injection, schedule: Q04DX003 (ip), vehicle: saline",105 % of control
C=C1[C@@H](OC(C)=O)C[C@@H]2C[C@]3(C)C(OC(C)=O)CC(C)(C)[C@@H]3C12O (stereo not given in full),T/C,"dose: 1.75 mg/kg/injection, schedule: Q01DX005 (ip), vehicle: saline",98 % of control
same,T/C,"dose: 3.5 mg/kg/injection, schedule: Q01DX005 (ip), vehicle: saline",100 % of control
same,T/C,"dose: 7.0 mg/kg/injection, schedule: Q01DX005 (ip), vehicle: saline",97 % of control
C/C(=N\NC1=NCCN1)c1cnn(C2=NCCN2)c1C,T/C,"dose: 60.0 mg/kg/injection, schedule: Q01DX005 (ip), vehicle: saline",116 % of control
same,T/C,"dose: 120.0 mg/kg/injection, schedule: Q01DX005 (ip), vehicle: saline",108 % of control
same,T/C,"dose: 240.0 mg/kg/injection, schedule: Q01DX005 (ip), vehicle: saline",118 % of control
CC(C)N1CCN(c2ccncc2S(=O)(=O)N2CCCC2)CC1,T/C,[8],87 % of control
same,T/C,[9],99 % of control
same,T/C,[10],97 % of control
O=C1CSC(c2cccc(F)c2)N1CCN1C(=O)CSC1c1cccc(F)c1 (stereo not given),T/C,[5],95 % of control
same,T/C,[6],98 % of control
same,T/C,[7],106 % of control
Nc1ccc2c(n1)NCC/C2=N\Nc1ccc(F)cc1,T/C,[2],105 % of control
same,T/C,[3],105 % of control
OCC1CC(O)CN2CCc3c([nH]c4ccccc34)C2C1 (stereo not given),T/C,"dose: 12.5 mg/kg/injection, schedule: Q01DX005 (ip), vehicle: Klucel (hydroxypropylcellulose) (HPC)",99 % of control
same,T/C,"dose: 25.0 mg/kg/injection, schedule: Q01DX005 (ip), vehicle: Klucel (hydroxypropylcellulose) (HPC)",99 % of control
same,T/C,[1],101 % of control
Cc1cc(C)nc(/N=C/c2ccccc2O)c1,T/C,[8],98 % of control
same,T/C,[9],88 % of control
same,T/C,[10],91 % of control
COc1cc2oc(=O)cc(C)c2cc1N,T/C,"dose: 50.0 mg/kg/injection, schedule: Q04DX002 (ip), vehicle: suspension in saline",109 % of control
same,T/C,"dose: 100.0 mg/kg/injection, schedule: Q04DX002 (ip), vehicle: suspension in saline",99 % of control
same,T/C,"dose: 200.0 mg/kg/injection, schedule: Q04DX002 (ip), vehicle: suspension in saline",106 % of control
O=c1c2c([nH]c3ccccc13)CSC2,T/C,[2],100 % of control
same,T/C,[3],100 % of control
same,T/C,[4],97 % of control
same,T/C,"dose: 400.0 mg/kg/injection, schedule: Q01DX009 (ip), vehicle: saline with Tween-80",100 % of control
C=CC(=O)N1CN(C(=O)C=C)CN(C(=O)C=C)C1,T/C,"dose: 6.25 mg/kg/injection, schedule: Q01DX009 (ip), vehicle: saline with Tween-80",100 % of control
same,T/C,"dose: 12.5 mg/kg/injection, schedule: Q01DX009 (ip), vehicle: saline with Tween-80",158 % of control
Fc1ccc(C2SCCCS2)cc1,T/C,[8],92 % of control
same,T/C,[9],92 % of control
same,T/C,[10],101 % of control
CN(C)C1CC2C=CC1C1C=CC21 (stereo not given),T/C,"dose: 3.13 mg/kg/injection, schedule: Q01DX009 (ip), vehicle: water",100 % of control
same,T/C,"dose: 6.25 mg/kg/injection, schedule: Q01DX009 (ip), vehicle: water",99 % of control
same,T/C,"dose: 12.5 mg/kg/injection, schedule: Q01DX009 (ip), vehicle: water",100 % of control
same,T/C,"dose: 25.0 mg/kg/injection, schedule: Q01DX009 (ip), vehicle: water",99 % of control
same,T/C,"dose: 50.0 mg/kg/injection, schedule: Q01DX009 (ip), vehicle: water",98 % of control
